{"source": "patent US8362000B2", "about": "“Azetidinyl diamides as monoacylglycerol lipase inhibitors” (Janssen Pharmaceutica NV, priority 2009, dated 2013)", "target": "T1, MGL (Rattus norvegicus, UniProt Q8R431)", "T1 construct": "one g rat brain was homogenized using a Polytron homogenizer; from tissue; host or cells: rat brain homogenate", "T1 sequence (Q8R431 1-303)": "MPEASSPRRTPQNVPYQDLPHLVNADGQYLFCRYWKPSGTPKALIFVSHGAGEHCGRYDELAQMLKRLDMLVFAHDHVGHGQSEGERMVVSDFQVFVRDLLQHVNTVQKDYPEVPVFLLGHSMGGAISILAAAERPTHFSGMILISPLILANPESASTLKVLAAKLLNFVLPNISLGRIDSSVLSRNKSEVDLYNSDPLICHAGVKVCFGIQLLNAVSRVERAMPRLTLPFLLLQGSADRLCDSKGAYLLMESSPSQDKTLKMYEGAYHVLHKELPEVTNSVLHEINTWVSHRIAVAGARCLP", "assay": "2-AG accumulation assay in rat brain homogenate", "assay_type": "biochemical", "details": "rat brain homogenate, 2-AG accumulation as percent of vehicle; for 2-AG accumulation, % of vehicle control at 10 µM: compound 10 μM, read-out: Rat Brain 2AG % VehCntrl (%) @ 10 μM; for 2-AG accumulation, % of vehicle control at 1 µM: compound 1 μM, read-out: Rat Brain 2AG % VehCntrl (%) @ 1 μM"}
{"smiles": "O=C(c1ccc(-c2cccc3ncccc23)cc1)N1CC(N2CCN(C(=O)c3nccs3)CC2)C1", "note": "[Cpd 184, 5-[4-({3-[4-(1,3-Thiazol-2-ylcarbonyl)piperazin-1-yl]azetidin-1-yl}carbonyl)phenyl]quinoline]", "values": [{"measurement": "2-AG accumulation, % of vehicle control at 10 µM", "result": 956, "unit": "%"}]}
{"smiles": "O=C(c1ccccc1)N1CCN(C2CN(C(=O)c3ccc(-c4cccc(C(F)(F)F)c4)cc3)C2)CC1", "note": "[Cpd 186, 1-(Phenylcarbonyl)-4-(1-{[3′-(trifluoromethyl)biphenyl-4-yl]carbonyl}azetidin-3-yl)piperazine]", "values": [{"measurement": "2-AG accumulation, % of vehicle control at 0.01 µM", "setting": "compound 0.01 μM, read-out: Rat Brain 2AG % VehCntrl (%) @ 0.01 μM", "result": 123, "unit": "%"}, {"measurement": "2-AG accumulation, % of vehicle control at 0.1 µM", "setting": "compound 0.1 μM, read-out: Rat Brain 2AG % VehCntrl (%) @ 0.1 μM", "result": 199, "unit": "%"}, {"measurement": "2-AG accumulation, % of vehicle control at 1 µM", "result": 260, "unit": "%"}, {"measurement": "2-AG accumulation, % of vehicle control at 10 µM", "result": 521, "unit": "%"}]}
{"smiles": "CC(C)Oc1cccc(-c2ccc(C(=O)N3CC(N4CCN(C(=O)c5ccccc5)CC4)C3)cc2)c1", "note": "[Cpd 188, 1-(1-{[3′-(1-Methylethoxy)biphenyl-4-yl]carbonyl}azetidin-3-yl)-4-(phenylcarbonyl)piperazine]", "values": [{"measurement": "2-AG accumulation, % of vehicle control at 10 µM", "result": 506, "unit": "%"}]}
{"smiles": "O=C(c1ccccc1)N1CCN(C2CN(C(=O)c3ccc(-c4cccc(F)c4)cc3)C2)CC1", "note": "[Cpd 195, 1-{1-[(3′-Fluorobiphenyl-4-yl)carbonyl]azetidin-3-yl}-4-(phenylcarbonyl)piperazine]", "values": [{"measurement": "2-AG accumulation, % of vehicle control at 10 µM", "result": 365, "unit": "%"}]}
{"smiles": "N#CCc1cccc(-c2ccc(C(=O)N3CC(N4CCN(C(=O)c5nccs5)CC4)C3)cc2)c1", "note": "[Cpd 207, [4′-({3-[4-(1,3-Thiazol-2-ylcarbonyl)piperazin-1-yl]azetidin-1-yl}carbonyl)biphenyl-3-yl]acetonitrile]", "values": [{"measurement": "2-AG accumulation, % of vehicle control at 10 µM", "result": 402, "unit": "%"}]}
{"smiles": "O=Cc1cccc(-c2ccc(C(=O)N3CC(N4CCN(C(=O)c5nccs5)CC4)C3)cc2)c1", "note": "[Cpd 210, 4′-({3-[4-(1,3-Thiazol-2-ylcarbonyl)piperazin-1-yl]azetidin-1-yl}carbonyl)biphenyl-3-carbaldehyde]", "values": [{"measurement": "2-AG accumulation, % of vehicle control at 10 µM", "result": 122, "unit": "%"}]}
{"smiles": "O=C(c1ccc(-c2ccc(O)cc2)cc1)N1CC(N2CCN(C(=O)c3nccs3)CC2)C1", "note": "[Cpd 211, 4′-({3-[4-(1,3-Thiazol-2-ylcarbonyl)piperazin-1-yl]azetidin-1-yl}carbonyl)biphenyl-4-ol]", "values": [{"measurement": "2-AG accumulation, % of vehicle control at 10 µM", "result": 725, "unit": "%"}]}
{"smiles": "CN(C)S(=O)(=O)c1ccc(-c2ccc(C(=O)N3CC(N4CCN(C(=O)c5nccs5)CC4)C3)cc2)cc1", "note": "[Cpd 213, N,N-Dimethyl-4′-({3-[4-(1,3-thiazol-2-ylcarbonyl)piperazin-1-yl]azetidin-1-yl}carbonyl)biphenyl-4-sulfonamide]", "values": [{"measurement": "2-AG accumulation, % of vehicle control at 10 µM", "result": 104, "unit": "%"}]}
{"smiles": "COc1cc(F)c(F)cc1-c1ccc(C(=O)N2CC(N3CCN(C(=O)c4nccs4)CC3)C2)cc1", "note": "[Cpd 214, 1-{1-[(4′,5′-Difluoro-2′-methoxybiphenyl-4-yl)carbonyl]azetidin-3-yl}-4-(1,3-thiazol-2-ylcarbonyl)piperazine]", "values": [{"measurement": "2-AG accumulation, % of vehicle control at 10 µM", "result": 769, "unit": "%"}]}
{"smiles": "COc1ccc(-c2ccc(C(=O)N3CC(N4CCN(C(=O)c5nccs5)CC4)C3)cc2)cc1C=O", "note": "[Cpd 216, 4-Methoxy-4′-({3-[4-(1,3-thiazol-2-ylcarbonyl)piperazin-1-yl]azetidin-1-yl}carbonyl)biphenyl-3-carbaldehyde]", "values": [{"measurement": "2-AG accumulation, % of vehicle control at 10 µM", "result": 625, "unit": "%"}]}
{"smiles": "O=C(c1ccc(-c2cccc(O)c2)cc1)N1CC(N2CCN(C(=O)c3nccs3)CC2)C1", "note": "[Cpd 218, 4′-({3-[4-(1,3-Thiazol-2-ylcarbonyl)piperazin-1-yl]azetidin-1-yl}carbonyl)biphenyl-3-ol]", "values": [{"measurement": "2-AG accumulation, % of vehicle control at 10 µM", "result": 764, "unit": "%"}]}
{"smiles": "CC(C)(C)OC(=O)Nc1cccc(-c2ccc(C(=O)N3CC(N4CCN(C(=O)c5nccs5)CC4)C3)cc2)c1", "note": "[Cpd 220, tert-Butyl [4′-({3-[4-(1,3-thiazol-2-ylcarbonyl)piperazin-1-yl]azetidin-1-yl}carbonyl)biphenyl-3-yl]carbamate]", "values": [{"measurement": "2-AG accumulation, % of vehicle control at 10 µM", "result": 993, "unit": "%"}]}
{"smiles": "CC(C)COc1cccc(-c2ccc(C(=O)N3CC(N4CCN(C(=O)c5nccs5)CC4)C3)cc2)c1", "note": "[Cpd 221, 1-(1-{[3′-(2-Methylpropoxy)biphenyl-4-yl]carbonyl}azetidin-3-yl)-4-(1,3-thiazol-2-ylcarbonyl)piperazine]", "values": [{"measurement": "2-AG accumulation, % of vehicle control at 10 µM", "result": 945, "unit": "%"}]}
{"smiles": "COC(=O)C=Cc1ccc(-c2ccc(C(=O)N3CC(N4CCN(C(=O)c5nccs5)CC4)C3)cc2)cc1", "note": "[Cpd 224, Methyl 3-[4′-({3-[4-(1,3-thiazol-2-ylcarbonyl)piperazin-1-yl]azetidin-1-yl}carbonyl)biphenyl-4-yl]prop-2-enoate]", "values": [{"measurement": "2-AG accumulation, % of vehicle control at 10 µM", "result": 906, "unit": "%"}]}
{"smiles": "Nc1cccc(-c2ccc(C(=O)N3CC(N4CCN(C(=O)c5nccs5)CC4)C3)cc2)c1", "note": "[Cpd 230, 4′-({3-[4-(1,3-Thiazol-2-ylcarbonyl)piperazin-1-yl]azetidin-1-yl}carbonyl)biphenyl-3-amine]", "values": [{"measurement": "2-AG accumulation, % of vehicle control at 10 µM", "result": 567, "unit": "%"}]}
{"smiles": "O=C(CCc1ccccc1Cl)N1CC(N2CCN(C(=O)c3nccs3)CC2)C1", "note": "[Cpd 273, 1-{1-[3-(2-Chlorophenyl)propanoyl]azetidin-3-yl}-4-(1,3-thiazol-2-ylcarbonyl)piperazine]", "values": [{"measurement": "2-AG accumulation, % of vehicle control at 10 µM", "result": 623, "unit": "%"}]}
{"smiles": "O=C(CCc1c(Cl)cccc1Cl)N1CC(N2CCN(C(=O)c3nccs3)CC2)C1", "note": "[Cpd 274, 1-{1-[3-(2,6-Dichlorophenyl)propanoyl]azetidin-3-yl}-4-(1,3-thiazol-2-ylcarbonyl)piperazine]", "values": [{"measurement": "2-AG accumulation, % of vehicle control at 10 µM", "result": 876, "unit": "%"}]}
{"smiles": "O=C(CCc1ccc(Cl)c(Cl)c1)N1CC(N2CCN(C(=O)c3nccs3)CC2)C1", "note": "[Cpd 281, 1-{1-[3-(3,4-Dichlorophenyl)propanoyl]azetidin-3-yl}-4-(1,3-thiazol-2-ylcarbonyl)piperazine]", "values": [{"measurement": "2-AG accumulation, % of vehicle control at 10 µM", "result": 201, "unit": "%"}]}
{"smiles": "O=C(/C=C/c1ccc(SC(F)(F)F)cc1)N1CC(N2CCN(C(=O)c3nccs3)CC2)C1", "note": "[Cpd 283]", "values": [{"measurement": "2-AG accumulation, % of vehicle control at 10 µM", "result": 605, "unit": "%"}]}
{"smiles": "O=C(c1ccc2c(Br)cccc2c1)N1CC(N2CCN(C(=O)c3nccs3)CC2)C1", "note": "[Cpd 313, 1-{1-[(5-Bromonaphthalen-2-yl)carbonyl]azetidin-3-yl}-4-(1,3-thiazol-2-ylcarbonyl)piperazine]", "values": [{"measurement": "2-AG accumulation, % of vehicle control at 10 µM", "result": 814, "unit": "%"}]}
{"smiles": "CC(C)(C)OC(=O)N1CCc2cc(C(=O)N3CC(N4CCN(C(=O)c5ccccc5)CC4)C3)ccc2C1", "note": "[Cpd 319, tert-Butyl 6-({3-[4-(phenylcarbonyl)piperazin-1-yl]azetidin-1-yl}carbonyl)-3,4-dihydroisoquinoline-2(1H)-carboxylate]", "values": [{"measurement": "2-AG accumulation, % of vehicle control at 10 µM", "result": 396, "unit": "%"}]}
{"smiles": "O=C(c1ccccc1)N1CCN(C2CN(C(=O)c3ccc(Cc4ccccc4)s3)C2)CC1", "note": "[Cpd 321, 1-{1-[(5-Benzylthiophen-2-yl)carbonyl]azetidin-3-yl}-4-(phenylcarbonyl)piperazine]", "values": [{"measurement": "2-AG accumulation, % of vehicle control at 10 µM", "result": 230, "unit": "%"}]}
{"smiles": "O=C(c1cscn1)N1CCN(C2CN(C(=O)c3cc4c(C(F)(F)F)cccc4s3)C2)CC1", "note": "[Cpd 334, 1-(1,3-Thiazol-4-ylcarbonyl)-4-(1-{[4-(trifluoromethyl)-1-benzothiophen-2-yl]carbonyl}azetidin-3-yl)piperazine]", "values": [{"measurement": "2-AG accumulation, % of vehicle control at 1 µM", "result": 259, "unit": "%"}]}
{"smiles": "O=C(c1ccccc1)N1CCN(C2CN(C(=O)c3sc4cc(C(F)(F)F)ccc4c3Cl)C2)CC1", "note": "[Cpd 336]", "values": [{"measurement": "2-AG accumulation, % of vehicle control at 1 µM", "result": 223, "unit": "%"}]}
{"smiles": "O=C(c1ccccc1)N1CCN(C2CN(C(=O)c3cc4ccc(-c5ccccc5)cc4s3)C2)CC1", "note": "[Cpd 342, 1-{1-[(6-Phenyl-1-benzothiophen-2-yl)carbonyl]azetidin-3-yl}-4-(phenylcarbonyl)piperazine]", "values": [{"measurement": "2-AG accumulation, % of vehicle control at 10 µM", "result": 288, "unit": "%"}]}
